As a reminder, the EC50 is the concentration giving half of the maximal effect. High values mean lower potency in that assay, low ones higher potency in that assay.

The test system of one assay is NL-RLuc virus. Description: Inhibition of HIV replication: NL-RLuc reporter virus in MT-2 cells, luciferase readout. It is filed as cell-based. Particulars: Human immunodeficiency virus 1, MT2, 120 h, MT-2 cells infected with NL-RLuc virus, 5 days of incubation, 10% FBS, at least 2 experiments. From the text: Inhibition of HIV Replication:
A recombinant NL-RLuc proviral clone was constructed in which a section of the nef gene from NL4-3 was replaced with the Renilla Luciferase gene. This virus is fully infectious and can undergo multiple cycles of replication in cell culture. In addition, the luciferous reporter provides a simple and easy method for quantitating the extent of virus growth and consequently, the antiviral activity of test compounds. The plasmid pNLRLuc contains the proviral NL-Rluc DNA cloned into pUC 18 at the PvuII site. The NL-RLuc virus was prepared by transfection of 293T cells with the plasmid pNLRLuc. Transfections were performed using the LipofectAMINE PLUS kit from Invitrogen (Carlsbad, Calif.) according to the manufacturer and the virus generated was titered in MT-2 cells. For susceptibility analyses, the titrated virus was used to infect MT-2 cells in the presence of compound, and after 5 days of incubation, cells were processed and quantitated for virus growth by the amount of expressed luciferase. Assay media was RPMI 1640 supplemented with 10% heat inactivated fetal bovine serum (FBS), 100 units/ml penicillin G/100 units/ml streptomycin, 10 mM HEPES buffer pH 7.55 and 2 mM L-glutamine. The results from at least 2 experiments were used to calculate the EC50 values. Luciferase was quantitated using the Dual Luciferase kit from Promega (Madison, Wis.). Susceptibility of viruses to compounds was determined by incubation in the presence of serial dilutions of the compound. The 50% effective concentration (EC50) was calculated by using the exponential form of the median effect equation where (Fa)=1/[1+(ED50/drug conc.)^m](Johnson V A, Byington R T. Infectivity Assay. In Techniques in HIV Research. ed. Aldovini A, Walker B D. 71-76. New York: Stockton Press. 1990).
`Cc1cc2nc3cn2c(c1[C@H](OC(C)(C)C)C(=O)O)N1CCC(C)(CCCCCOc2ccccc2CNC3=O)CC1` [Example 1, (2S)-2-(tert-Butoxy)-2-{4,25-dimethyl-10-oxo-19-oxa-1,7,11,30-tetraazapentacyclo[23.2.2.1^6,^9.0^2,^7.0^13,^18]triaconta-2,4,6(30),8,13(18),14,16-heptaen-3-yl}acetic acid]: the response was half-maximal at 71 nM (EC50).
On the same count and under the same terms, under `Cc1cc2c(cc1C)-c1cccc(c1)-c1nc3cc(C)c([C@H](OC(C)(C)C)C(=O)O)c(n3c1Cl)N1CCC(C)(CC1)OCCCC[C@H](C)O2` [Example 25, (2S)-2-(tert-Butoxy)-2-[(22S)-8-chloro-4,17,18,22,28-pentamethyl-21,27-dioxa-1,7,34-triazahexacyclo[26.2.2.1^6,^9.1^10,^14.0^2,^7.0^15,^20]tetratriaconta-2,4,6(34),8,10(33),11,13,15(20),16,18-decaen-3-yl]acetic acid] stands 30 nM; under `Cc1c([C@H](OC(C)(C)C)C(=O)O)c2n3cc(nc3c1CO)-c1cccc(c1)-c1cc(F)ccc1O[C@@H](C)CCCCOC1(C)CCN2CC1` [Example 53, (2S)-2-(tert-Butoxy)-2-[(22S)-17-fluoro-5-(hydroxymethyl)-4,22,28-trimethyl-21,27-dioxa-1,7,34-triazahexacyclo[26.2.2.1^6,^9.1^10,^14.0^2,^7.0^15,^20]tetratriaconta-2,4,6(34),8,10(33),11,13,15(20),16,18-decaen-3-yl]acetic acid], 8 nM; under `Cc1cc2nc3cn2c(c1[C@H](OC(C)(C)C)C(=O)O)N1CCC(C)(CC1)OC/C=C\C[C@H](C)Oc1cc(F)c(F)cc1-c1cccc-3c1` [Example 12, (2S)-2-(tert-Butoxy)-2-[(22S)-17,18-difluoro-4,22,28-trimethyl-21,27-dioxa-1,7,34-triazahexacyclo[26.2.2.1^6,^9.1^10,^14.0^2,^7.0^15,^20]tetratriaconta-2,4,6(34),8,10(33),11,13,15(20),16,18,24-undecaen-3-yl]acetic acid], 3 nM.
Same read-out and setting: under `C=Cc1c(C)c([C@H](OC(C)(C)C)C(=O)O)c2n3cc(nc13)-c1cccc(c1)-c1cc(F)ccc1O[C@@H](C)CCCCOC1(C)CCN2CC1` [Example 38, (2S)-2-(tert-Butoxy)-2-[(22S)-5-ethenyl-17-fluoro-4,22,28-trimethyl-21,27-dioxa-1,7,34-triazahexacyclo[26.2.2.1^6,^9.1^10,^14.0^2,^7.0^15,^20]tetratriaconta-2,4,6(34),8,10(33),11,13,15(20),16,18-decaen-3-yl]acetic acid] stands 93 nM; under `Cc1ccc2c(c1)-c1cccc(c1)-c1cn3c(c([C@H](OC(C)(C)C)C(=O)O)c(C)cc3n1)N1CCC(C)(CC1)OC/C=C/C[C@H](C)O2` [Example 9, (2S)-2-(tert-Butoxy)-2-[(22S)-4,17,22,28-tetramethyl-21,27-dioxa-1,7,34-triazahexacyclo[26.2.2.1^6,^9.1^10,^14.0^2,^7.0^15,^20]tetratriaconta-2,4,6(34),8,10(33),11,13,15(20),16,18,24-undecaen-3-yl]acetic acid], 9 nM.
Same read-out and setting: the same measure for `Cc1cc2c(cc1C)-c1cccc(c1)-c1cn3c(c([C@H](OC(C)(C)C)C(=O)O)c(C)cc3n1)N1CCC(C)(CC1)OCC=CC[C@H](C)O2` [Example 17, (2S)-2-(tert-Butoxy)-2-[(22S)-4,17,18,22,28-pentamethyl-21,27-dioxa-1,7,34-triazahexacyclo[26.2.2.1^6,^9.1^10,^14.0^2,^7.0^15,^20]tetratriaconta-2,4,6(34),8,10(33),11,13,15(20),16,18,24-undecaen-3-yl]acetic acid]: 6 nM; for `Cc1cc2c(cc1F)-c1cccc(c1)-c1cn3c(c([C@H](OC(C)(C)C)C(=O)O)c(C)c(NS(C)(=O)=O)c3n1)N1CCC(C)(CC1)OCCCC[C@H](C)O2` [Example 31, (2S)-2-(tert-Butoxy)-2-[(22S)-17-fluoro-5-methanesulfonamido-4,18,22,28-tetramethyl-21,27-dioxa-1,7,34-triazahexacyclo[26.2.2.1^6,^9.1^10,^14.0^2,^7.0^15,^20]tetratriaconta-2,4,6(34),8,10(33),11,13,15(20),16,18-decaen-3-yl]acetic acid]: 19 nM.
`Cc1cc2nc3cn2c(c1[C@H](OC(C)(C)C)C(=O)O)N1CCC(C)(CC1)OCCCC[C@H](C)Oc1cc(F)c(F)cc1-c1cccc-3c1` [Example 13, (2S)-2-(tert-Butoxy)-2-[(22S)-17,18-difluoro-4,22,28-trimethyl-21,27-dioxa-1,7,34-triazahexacyclo[26.2.2.1^6,^9.1^10,^14.0^2,^7.0^15,^20]tetratriaconta-2,4,6(34),8,10(33),11,13,15(20),16,18-decaen-3-yl]acetic acid] returned an EC50 of 8 nM. This EC50 is about 2.4-fold lower than that of the compound before.
Same read-out and setting: the same measure for `Cc1cc2c(cc1F)-c1cccc(c1)-c1nc3cc(C)c([C@H](OC(C)(C)C)C(=O)O)c(n3c1Br)N1CCC(C)(CC1)OCCCC[C@H](C)O2` [Example 27, (2S)-2-[(22S)-8-Bromo-17-fluoro-4,18,22,28-tetramethyl-21,27-dioxa-1,7,34-triazahexacyclo[26.2.2.1^6,^9.1^10,^14.0^2,^7.0^15,^20]tetratriaconta-2,4,6(34),8,10(33),11,13,15(20),16,18-decaen-3-yl]-2-(tert-butoxy)acetic acid]: 13 nM; for `Cc1cc(F)c2c(c1)O[C@@H](C)CCCCOC1(C)CCN(CC1)c1c([C@H](OC(C)(C)C)C(=O)O)c(C)cc3nc(cn13)-c1cccc-2c1` [Example 21, (2S)-2-(tert-Butoxy)-2-[(22S)-16-fluoro-4,18,22,28-tetramethyl-21,27-dioxa-1,7,34-triazahexacyclo[26.2.2.1^6,^9.1^10,^14.0^2,^7.0^15,^20]tetratriaconta-2,4,6(34),8,10(33),11,13,15(20),16,18-decaen-3-yl]acetic acid]: 5 nM.
As for `Cc1c([C@H](OC(C)(C)C)C(=O)O)c2n3cc(nc3c1Br)-c1cccc(c1)-c1cc(F)ccc1O[C@@H](C)CCCCOC1(C)CCN2CC1` [Example 32, (2S)-2-[(22S)-5-Bromo-17-fluoro-4,22,28-trimethyl-21,27-dioxa-1,7,34-triazahexacyclo[26.2.2.1^6,^9.1^10,^14.0^2,^7.0^15,^20]tetratriaconta-2,4,6(34),8,10(33),11,13,15(20),16,18-decaen-3-yl]-2-(tert-butoxy)acetic acid], the 50% effective concentration (EC50) worked out at 10 nM.
On the same count and under the same terms, under `Cc1c([C@H](OC(C)(C)C)C(=O)O)c2n3cc(nc3c1CO)-c1cccc(c1)-c1c(ccc(F)c1F)O[C@@H](C)CCCCOC1(C)CCN2CC1` [Example 54, (2S)-2-(tert-Butoxy)-2-[(22S)-16,17-difluoro-5-(hydroxymethyl)-4,22,28-trimethyl-21,27-dioxa-1,7,34-triazahexacyclo[26.2.2.1^6,^9.1^10,^14.0^2,^7.0^15,^20]tetratriaconta-2,4,6(34),8,10(33),11,13,15(20),16,18-decaen-3-yl]acetic acid] stands 4 nM.

Still in this assay, the particulars now being: MT-2 cells infected with NL-RLuc virus, 5 days of incubation, 10% FBS, at least 2 experiments.
The compound `Cc1c([C@H](OC(C)(C)C)C(=O)O)c2n3cc(nc3c1C(C)O)-c1cccc(c1)-c1c(ccc(F)c1F)O[C@@H](C)CCCCOC1(C)CCN2CC1` (stereo partly drawn) [Example 49, (2S)-2-(tert-Butoxy)-2-[(22S)-16,17-difluoro-5-(1-hydroxyethyl)-4,22,28-trimethyl-21,27-dioxa-1,7,34-triazahexacyclo[26.2.2.1^6,^9.1^10,^14.0^2,^7.0^15,^20]tetratriaconta-2,4,6(34),8,10(33),11,13,15(20),16,18-decaen-3-yl]acetic acid] had an EC50 of 2 nM.

Values taken from patent US9409922B2, “Imidazopyridine macrocycles as inhibitors of human immunodeficiency virus replication” (priority 2014, dated 2016).
